Experimental data published in patent US5342604A (The Dow Chemical Company, priority 1992, dated 1994).
Where two headings read alike, the source gives them in different places.

Key:
[1] = Inertness of antibody-complex conjugates challenged with excess DTPA; format: physicochemical; conditions: 1000 fold molar excess of DTPA, pH 7.4, one hour
Procedure: The purified antibody-complexes were added to HEPES buffer (N-2-hydroxyethylpiperazine-N'-2-ethanesulfonic acid) at pH 7.4 and treated with an appropriate amount of 0.1M DTPA solution (pH 7.4) to ensure a 1000 fold molar excess of DTPA over complex attached to antibody. After one hour an aliquot was removed and the antibody-complex conjugates were separated from low molecular weight substances using gel-filtration.

[2] = Lability of yttrium complexes on addition of excess metal; format: physicochemical; conditions: Y
Procedure: (§1) A disposable 10 ml plastic (Biorad) column was filled with 1 to 2 ml of water-swelled Sephadex™ C-25 cation exchange resin. The water was pressure eluted to the top of the resin. Fifteen μl of the complex (or more if counts were low) were added to the top of the resin. This was followed by 2 ml of 4:1 (V:V) isotonic saline:conc. ammonium hydroxide solution as an eluent which was allowed to drip into a counting tube. This was also pressure eluted to the top of the resin. An additional 2 ml of the eluent were added and the column pressure eluted to remove all liquid. The dried resin was then placed in a third counting tube and the three tubes counted on a NaI well counter using a Canberra multichannel analyzer linked to a computer. The percent complex was determined by dividing the number of counts in the two elutions by the total counts in the elutions plus the column, all times 100. By this method, uncomplexed yttrium was retained on the column.
The 1:1 complex of yttrium with 1-(p-aminobenzyl)diethylenetriaminepentaacetic acid (ABDTPA), a well known bifunctional chelant used in the literature, and with the ligand of Example 2 (Now Ex. XVI) and Example 12 (now Ex. XVII) were prepared using the techniques described earlier. Several 100 microliter aliquots were then withdrawn into separate centrifuge tubes. Excess metal was added such that the total volume change is minimized and the time noted. One-half hour after metal addition, the percent complex was determined by the Sephadex™ C-25 method and this was compared to the original amount of complex. The percent complex versus added metal gives an indication as to the lability of the ligand-metal complex. Results are given below and are compared to the EDTA-yttrium complex.

[3] = In vivo screening of bifunctional chelates: biodistribution, percent injected dose in liver; conditions: rat, i.v. tail vein, 2 hours
[4] = cited from earlier work
[5] = Biodistribution in rats; conditions: 2 hours
[6] = Percent complex determination, yttrium complexes (Sephadex C-25 cation exchange); format: physicochemical; conditions: Y
Procedure: The yttrium and/or samarium complexes of several of the compounds were prepared and percent complexation determined as follows:
Complexes were made by preparing a 0.0003M yttrium solution in water. (YCl3 ·6H2 O, 303.26 g/mole; Y(OAc)3, 12.1% H2 0). Radioactive YCl3 (Oakridge National Laboratories) was added to give the desired number of counts. Ten μl of ligand solution (at 0.03M) were added to 990 μl of the Y solution, giving a ligand-to-metal ratio of 1:1. (Ten times the amount of ligand solution was used for a 10:1 ligand to metal ratio.) The pH was then adjusted to 7.4 using microliter quantities of hydrochloric acid or sodium hydroxide. The solution was then tested for the amount of complexed yttrium using the cation exchange method given below.
as §1

[7] = Biodistribution in rabbit; format: in vivo; conditions: Y-90, 10 times molar excess ligand
Procedure: Muscle was calculated using 46% of body weight.
A rabbit was injected in the same manner as the rats with a formulation having Y-90 with Y at 3×10^-4 M and the ligand of Example 10 at 10 times molar excess.

[8] = system: osteosarcoma in the right proximal humerus; experiment: Treatment of a dog with osteosarcoma; format: in vivo; conditions: Sm-153, 300 times molar excess ligand, I.V. 0.95 mCi/Kg, one week after injection
Procedure: A dog was presented with an osteosarcoma in the right proximal humerus and walked with significant lameness. A complex was prepared using the ligand of Example 10 with a Sm-153 solution. The concentration of Sm was 3×10^-4 M and the ligand was used with a 300 times molar excess. The specific activity of the Sm-153 was 30 mCi/ml. The dog was given an I.V. injection of this complex containing 0.95 mCi of Sm-153 per Kg body weight of the dog.

[9] = Percent complex determination, samarium complexes (Sephadex C-25 cation exchange); format: physicochemical; conditions: Sm
Procedure: as §1, with “100.” for “100. By this method, uncomplexed yttrium was retained on the column.”
Samarium complexes were formed as described previously for yttrium complexes except that 0.0003M samarium was prepared by dissolution of Sm2 03 (348.7 g mole) in 0.1M hydrochloric acid. […] Percent complex determination was made in the same manner as for the yttrium complex.

[10] = radionuclide; cited from earlier work
[11] = Metal/Ligand Molar Ratio 10, one-half hour after metal addition
[12] = Metal/Ligand Molar Ratio 100, one-half hour after metal addition
[13] = Metal/Ligand Molar Ratio 250, one-half hour after metal addition
[14] = Metal/Ligand Molar Ratio 500, one-half hour after metal addition
[15] = Ho-166, 300 times molar excess ligand
[16] = Sm-153, 10 times molar excess ligand
[17] = Sm-153, 300 times molar excess ligand

Nc1ccc(CC(CN(CCN(CC(=O)O)CC(=O)O)CC(=O)O)N(CC(=O)O)CC(=O)O)cc1 (centres unmarked) [ABDTPA, 1-(p-aminobenzyl)diethylenetriaminepentaacetic acid]
yttrium lost from antibody-complex conjugate [1]: over 98%
% Complex ([2]; Metal/Ligand Molar Ratio 1): 97%
% Complex [2, 11]: 95%
% Complex [2, 12]: 92%
% Complex [2, 13]: 87%
% Complex [2, 14]: 70%

O=C(O)CN(CCN(CC(=O)O)CC(=O)O)CC(=O)O [EDTA, ethylenediaminetetraacetic acid]
% Injected Dose in Liver ([3]; Sm, ligand/metal 5:1): 8.4%
% Injected Dose in Liver ([3]; Sm, ligand/metal about 300:1): 4.4%
% Complex ([2]; Metal/Ligand Molar Ratio 1): 98%
% Complex [2, 11]: 86%
% Complex [2, 12]: 78%
% Complex [2, 13]: 48%
% Complex [2, 14]: 16%
concentrations of radioactivity in organs ([4]; Sc-46, Y-91, La-140, Sm-153, chelant to metal 5:1): high concentrations of radioactivity were observed in the liver, spleen, kidney, lung and bone

CC(=O)Nc1cc(C(C(=O)O)N(CC(=O)O)CC(=O)O)c(O)c(C(C(=O)O)N(CC(=O)O)CC(=O)O)c1 (centres unmarked) [Example 10, 2,6-BIS{[BIS(CARBOXYMETHYL)AMINO](CARBOXY)METHYL}-4-(ACETAMIDO) PHENOL]
% Injected Dose in Liver ([3]; Ho, (300)): 0.26%
% Injected Dose in Liver ([3]; Sm, (300)): 0.12%
% Injected Dose in Liver ([3]; Sm, ligand/metal 10:1): 1.3%
% Injected Dose in Liver ([3]; Y, ligand/metal 10:1): 0.39%
biodistribution, blood (% dose) [5, 15]: 0.09%
biodistribution, bone (% dose) [5, 15]: 52.9%
biodistribution, liver (% dose) [5, 15]: 0.26%
biodistribution, muscle (% dose) [5, 15]: 1.1%
biodistribution, spleen (% dose) [5, 15]: 0.007%
biodistribution, blood (% dose) [5, 16]: 0.18%
biodistribution, bone (% dose) [5, 16]: 48.5%
biodistribution, liver (% dose) [5, 16]: 1.3%
biodistribution, muscle (% dose) [5, 16]: 0.73%
biodistribution, spleen (% dose) [5, 16]: 0.01%
biodistribution, blood (% dose) [5, 17]: 0.05%
biodistribution, bone (% dose) [5, 17]: 52.7%
biodistribution, liver (% dose) [5, 17]: 0.12%
biodistribution, muscle (% dose) [5, 17]: 0.23%
biodistribution, spleen (% dose) [5, 17]: 0.005%
% Complex ([6]; ligand/metal 10:1): 98%
biodistribution, blood (% dose) [7]: 0.68%
biodistribution, bone (% dose) [7]: 59%
biodistribution, liver (% dose) [7]: 1.1%
biodistribution, muscle (% dose) [7]: 1.5%
biodistribution, spleen (% dose) [7]: 0.19%
dog's gait [8]: noticeably improved

Nc1cc(CN(CCN(CC(=O)O)CC(=O)O)CC(=O)O)c(O)c(CN(CCN(CC(=O)O)CC(=O)O)CC(=O)O)c1 [Example 12]
yttrium lost from antibody-complex conjugate [1]: approximately 39%
% Complex ([9]; ligand/metal 10:1): 98%
% Complex ([9]; ligand/metal ratio about 1:1): 98%
% Complex ([6]; ligand/metal 10:1): 99%
% Complex ([6]; ligand/metal ratio about 1:1): 98%
% Complex ([2]; Metal/Ligand Molar Ratio 1): 95%
% Complex [2, 11]: 93%
% Complex [2, 12]: 90%
% Complex [2, 13]: 90%
% Complex [2, 14]: 79%

O=C(O)CN(CC(=O)O)CC(=O)O [NTA, nitrilotri-acetic acid, reference compound]
% Injected Dose in Liver ([3]; Sm, ligand/metal about 300:1): 8.6%
concentrations of radioactivity in organs ([4]; mouse, in vivo): high concentrations of radioactivity were observed in the liver, spleen, kidney, lung and bone

[89Sr] [Strontium-89]
half-life [10]: 50.4 days
